Data reported in patent publication US20250134874A1, “PHARMACEUTICAL FORMULATIONS COMPRISING 3-({[(4R)-7-{METHYL[4-(PROPAN-2-YL)PHENYL]AMINO}-3,4-DIHYDRO-2H-1-BENZOPYRAN-4-YL]METHYL}AMINO)PYRIDINE-4-CARBOXYLIC ACID” (TACHYON THERAPEUTICS, INC., priority 2021, published 2025).

Test system: 301 cancer cell lines from different tumor types (OncoPanel; HD Biosciences)
Assay: 2D cell viability inhibition assay (CellTiter-Glo) in cancer cell line panel
Assay type: cell-based
Details: Homo sapiens
Method: In a larger screening study, compound 1 was evaluated across a broad cancer cell line panel (OncoPanel; HD Biosciences) composed of 301 cancer cell lines from different tumor types.
2D cell viability inhibition assays were performed in multiwell plates seeded with cells from the panel. After seeding, the plates were cultured overnight in a humidified incubator at 37° C. to promote adherence. Assays were initiated in individual wells by adding either DMSO as a vehicle control, growth media as a blank, or serially diluted compound 1 (10 μM to 0.0005 μM with 1:3 serial dilution). Cultures were incubated for 168 hours after which the number of viable cells in each test well was assessed using the CellTiter-Glo® Luminescent Cell Viability Assay. Luminescence readouts were performed using an EnVision® Multilabel Reader and the compound 1 readouts were normalized to the DMSO control readouts, expressed as a percent of the control. Outliers were flagged out by visual inspection. Percent of control was plotted against the corresponding compound 1 concentration and the absolute IC50 value was determined using four-parameter logistic non-linear regression as the concentration where inhibition was 50% of the control. For maximum inhibition <50%, the absolute IC50 was reported as >10. In addition to EC50 and IC50, AUC was determined and was normalized to the area corresponding to theoretical no-inhibition (the rectangular area defined by the compound dose range and 0 to 100 in y). Emax was recorded as the minimum in y with the compound dose range. For those cell lines where Emax>40, EC50 was manually set to 10 μM. A hierarchical clustering algorithm based on Euclidean distance between the standardized input values and “Ward.D” method as implemented in R hclust function was used to visualize the compound 1 cellular potency data. The sensitive/moderate/resistant calls for each cell line was determined by visually inspecting the resulting clustering dendrogram. All the analyses were done in R Core Team.

CC(C)c1ccc(N(C)c2ccc3c(c2)OCC[C@H]3CNc2cnccc2C(=O)O)cc1 [Compound 1, 3-({[(4R)-7-{methyl[4-(propan-2-yl)phenyl]amino}-3,4-dihydro-2H-1-benzopyran-4-yl]methyl}amino)pyridine-4-carboxylic acid]
EC50 (NCI-H1944, NCIH1944 cell line): ≥ 10000 nM | IC50 (NCI-H1944, NCIH1944 cell line): 16.3 nM | EC50 (NCI-H1975, NCIH1975 cell line): 25.5 nM | IC50 (NCI-H1975, NCIH1975 cell line): 34.8 nM | IC50 (NCI-H2009, 168 h, NCIH2009, lung, adenocarcinoma, 168 hours): > 10000 nM | EC50 (NCI-H2081, NCIH2081 cell line): 1.46 nM | IC50 (NCI-H2081, NCIH2081 cell line): 2.57 nM | EC50 (NCI-H2087, NCIH2087 cell line): 2.58 nM | IC50 (NCI-H2087, NCIH2087 cell line): 3.56 nM | EC50 (NCI-H2122, NCIH2122 cell line): 16.7 nM | IC50 (NCI-H2122, NCIH2122 cell line): 23.9 nM | EC50 (NCI-H2171, NCIH2171 cell line): ≥ 10000 nM | IC50 (NCI-H2171, NCIH2171 cell line): > 10000 nM | IC50 (NCI-H2228, NCIH2228 cell line): 179 nM | EC50 (NCI-H2286, NCIH2286 cell line): 2.53 nM | IC50 (NCI-H2286, NCIH2286 cell line): 3.51 nM | EC50 (NCI-H2291, NCIH2291 cell line): 7.55 nM | IC50 (NCI-H2291, NCIH2291 cell line): 8.4 nM | IC50 (NCI-H2347, NCIH2347 cell line): 13.1 nM | EC50 (NCI-N87, NCIN87 cell line): 3.94 nM | IC50 (NCI-N87, NCIN87 cell line): 4.29 nM | EC50 (NOMO-1, NOMO1 cell line): 3.92 nM | IC50 (NOMO-1, NOMO1 cell line): 5.01 nM | EC50 (NUGC-3, NUGC3 cell line): 5.63 nM | IC50 (NUGC-3, NUGC3 cell line): 7.72 nM | EC50 (NUGC-4, NUGC4 cell line): 6.62 nM | IC50 (NUGC-4, NUGC4 cell line): 10.6 nM | IC50 (ONS-76, 168 h, ONS76, central nervous system, NS, 168 hours): > 10000 nM | IC50 (OS-RC-2, OSRC2 cell line): > 10000 nM | IC50 (OVCAR-3, 168 h, NIHOVCAR3, ovary, NS, 168 hours): > 10000 nM | EC50 (P31-FUJ, P31FUJ cell line): 2.43 nM | IC50 (P31-FUJ, P31FUJ cell line): 4.32 nM | EC50 (PANC-1, PANC1 cell line): 51.5 nM | IC50 (PANC-1, PANC1 cell line): 68.6 nM | EC50 (PC-3, PC3 cell line): 11.8 nM | IC50 (PC-3, PC3 cell line): 14.5 nM | EC50 (PF-382, PF382 cell line): 1.89 nM | IC50 (PF-382, PF382 cell line): 3.69 nM | EC50 (PLC-PRF-5, PLCPRF5 cell line): 16.4 nM | IC50 (PLC-PRF-5, PLCPRF5 cell line): 28 nM | IC50 (RCM-1, RCM1 cell line): > 10000 nM | EC50 (RD, RD cell line): 4.79 nM | IC50 (RD, RD cell line): 9.29 nM | EC50 (REH, REH cell line): 1.32 nM | IC50 (REH, REH cell line): 1.21 nM | EC50 (RKO, RKO cell line): 8.5 nM | IC50 (RKO, RKO cell line): 11.5 nM | EC50 (RL, RL cell line): 1.88 nM | IC50 (RL, RL cell line): 2.99 nM | IC50 (RPMI-7951, 168 h, RPMI7951, skin, NS, 168 hours): > 10000 nM | EC50 (RPMI-8226, RPMI8226 cell line): 10.4 nM | IC50 (RPMI-8226, RPMI8226 cell line): 12.5 nM | EC50 (RT112/84, RT11284 cell line): 4.14 nM | IC50 (RT112/84, RT11284 cell line): 4.43 nM | IC50 (SAOS-2, 168 h, SAOS2, bone, NS, 168 hours): > 10000 nM | EC50 (SCC-4, SCC4 cell line): 5.57 nM | IC50 (SCC-4, SCC4 cell line): 10.5 nM | IC50 (SCC-9, 168 h, SCC9, upper aerodigestive tract, squamous cell carcinoma, 168 hours): > 10000 nM | IC50 (SCC-15, 168 h, SCC15, upper aerodigestive tract, squamous cell carcinoma, 168 hours): > 10000 nM | IC50 (SCC-25, 168 h, SCC25, upper aerodigestive tract, squamous cell carcinoma, 168 hours): > 10000 nM | EC50 (SCaBER, SCABER cell line): 8.93 nM | IC50 (SCaBER, SCABER cell line): 15.2 nM | EC50 (SH-SY5Y, SHSY5Y cell line): 4.32 nM | IC50 (SH-SY5Y, SHSY5Y cell line): 13.5 nM | EC50 (SK-BR-3, SKBR3 cell line): 4.32 nM | IC50 (SK-BR-3, SKBR3 cell line): 7.14 nM | EC50 (SK-CO-1, SKCO1 cell line): ≥ 10000 nM | IC50 (SK-CO-1, SKCO1 cell line): 30.6 nM | IC50 (SK-HEP1, 168 h, SKHEP1, liver, adenocarcinoma, 168 hours): > 10000 nM | EC50 (SK-LU-1, SKLU1 cell line): 8.49 nM | IC50 (SK-LU-1, SKLU1 cell line): 40 nM | IC50 (SK-MEL3, SKMEL3 cell line): 472 nM | EC50 (SK-MEL-1, SKMEL1 cell line): 0.536 nM | IC50 (SK-MEL-1, SKMEL1 cell line): 9.24 nM | EC50 (SK-MEL-2, SKMEL2 cell line): 27 nM | IC50 (SK-MEL-2, SKMEL2 cell line): 140 nM | EC50 (SK-MEL-5, SKMEL5 cell line): 14.8 nM | IC50 (SK-MEL-5, SKMEL5 cell line): 16.8 nM | IC50 (SK-MEL-24, 168 h, SKMEL24, skin, NS, 168 hours): > 10000 nM | EC50 (SK-MEL-28, SKMEL28 cell line): 5.63 nM | IC50 (SK-MEL-28, SKMEL28 cell line): 5.56 nM | EC50 (SK-MES-1, SKMES1 cell line): 24.3 nM | IC50 (SK-MES-1, SKMES1 cell line): 47.5 nM | IC50 (SK-N-SH, 168 h, SKNSH, autonomic ganglia, NS): > 10000 nM | IC50 (SK-OV-3, 168 h, SKOV3, ovary, adenocarcinoma, 168 hours): > 10000 nM | EC50 (SNB-19, SNB19 cell line): 7.01 nM | IC50 (SNB-19, SNB19 cell line): 11.6 nM | EC50 (SNU-5, SNU5 cell line): 82.4 nM | IC50 (SNU-5, SNU5 cell line): 146 nM | EC50 (SNU-16, SNU16 cell line): 3.69 nM | IC50 (SNU-16, SNU16 cell line): 4.22 nM | EC50 (SNU-398, SNU398 cell line): 9.63 nM | IC50 (SNU-398, SNU398 cell line): 18 nM | IC50 (SNU-C1, 168 h, SNUC1, large intestine, adenocarcinoma, 168 hours): > 10000 nM | IC50 (SUP-T1, SUPT1 cell line): 3330 nM | EC50 (SW48, SW48 cell line): ≥ 10000 nM | IC50 (SW48, SW48 cell line): 50 nM | EC50 (SW480, SW480 cell line): 7.73 nM | IC50 (SW480, SW480 cell line): 9.79 nM | EC50 (SW780, SW780 cell line): 11.8 nM | IC50 (SW780, SW780 cell line): 13 nM | IC50 (SW837, 168 h, SW837, large intestine, adenocarcinoma, 168 hours): > 10000 nM | IC50 (SW1417, 168 h, SW1417, large intestine, adenocarcinoma, 168 hours): > 10000 nM | EC50 (SW1463, SW1463 cell line): 9.18 nM | IC50 (SW1463, SW1463 cell line): 9.24 nM | EC50 (SW1710, SW1710 cell line): 27.3 nM | IC50 (SW1710, SW1710 cell line): 63.3 nM | IC50 (SW1990, SW1990 cell line): > 10000 nM | EC50 (SW-620, SW620 cell line): 26.3 nM | IC50 (SW-620, SW620 cell line): 29.3 nM | EC50 (T84, T84 cell line): 10.1 nM | IC50 (T84, T84 cell line): 21 nM | EC50 (TALL-1, TALL1 cell line): 0.895 nM
